Laboratory results taken from patent US7517874B2 (priority 2007, dated 2009).

Assays:
rat CB2 receptor (rCB2) = biological target: T1, rat CB2 receptor (rCB2) (Rattus norvegicus, UniProt Q9QZN9); experiment: cell-based; assay type: cell-based; conditions: for +/− RCB2: agonist or inverse agonist at rCB2
T1 sequence (Q9QZN9 1-360): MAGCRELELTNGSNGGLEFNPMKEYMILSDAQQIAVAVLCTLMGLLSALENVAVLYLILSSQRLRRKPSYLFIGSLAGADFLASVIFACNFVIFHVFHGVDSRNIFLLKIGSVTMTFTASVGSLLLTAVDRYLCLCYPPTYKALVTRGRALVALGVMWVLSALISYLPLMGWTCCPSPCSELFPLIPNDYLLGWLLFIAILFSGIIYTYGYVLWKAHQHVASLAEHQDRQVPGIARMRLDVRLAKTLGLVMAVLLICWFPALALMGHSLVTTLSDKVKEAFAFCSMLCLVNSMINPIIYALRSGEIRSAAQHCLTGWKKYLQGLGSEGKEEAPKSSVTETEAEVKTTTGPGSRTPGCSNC
Procedure, shortened: (§1)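 Readout: LANCE TR-FRET cAMP, back-calculated from a concurrent standard curve and scaled between forskolin-only and forskolin + 1 μM CP55,940 wells. EC50 and intrinsic activity came from four-parameter fits.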

[1] = biological target: human CB1 receptor (hCB1) (Homo sapiens, UniProt P21554); experiment: cell-based; assay type: cell-based; conditions: for +/− HCB1: agonist or inverse agonist at hCB1
Procedure, shortened: as §1

Chain of human CB1 receptor (hCB1) (P21554 whole entry): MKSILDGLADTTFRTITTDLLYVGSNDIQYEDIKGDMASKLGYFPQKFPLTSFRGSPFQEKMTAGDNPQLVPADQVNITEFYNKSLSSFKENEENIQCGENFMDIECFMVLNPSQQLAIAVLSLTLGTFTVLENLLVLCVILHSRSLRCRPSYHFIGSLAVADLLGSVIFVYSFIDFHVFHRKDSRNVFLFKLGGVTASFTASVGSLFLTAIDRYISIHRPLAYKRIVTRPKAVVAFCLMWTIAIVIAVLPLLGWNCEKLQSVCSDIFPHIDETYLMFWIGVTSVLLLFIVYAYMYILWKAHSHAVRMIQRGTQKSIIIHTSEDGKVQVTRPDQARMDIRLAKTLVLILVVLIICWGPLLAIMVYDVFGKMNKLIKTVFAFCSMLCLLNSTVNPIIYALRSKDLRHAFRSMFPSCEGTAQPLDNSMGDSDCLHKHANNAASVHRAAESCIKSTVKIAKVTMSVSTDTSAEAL

With CNC(=O)[C@@H](NC(=O)c1nc(-c2ccccc2F)n2c1CN(C)CCC2)C(C)(C)C [Compound 353, (S)-N-(3,3-dimethyl-1-(methylamino)-1-oxobutan-2-yl)-3-(2-fluorophenyl)-8-methyl-6,7,8,9-tetrahydro-5H-imidazo[1,5-a][1,4]diazepine-1-carboxamide] the “+/− RCB2” value (rat CB2 receptor (rCB2)) was “+” and the EC50 [1] was greater than 10 µM.
In the case of CNC(=O)[C@@H](NC(=O)c1nc(-c2csc3ccccc23)n2c1CN(C)CCC2)C(C)(C)C [Compound 354, (S)-3-(benzo[b]thiophen-3-yl)-N-(3,3-dimethyl-1-(methylamino)-1-oxobutan-2-yl)-8-methyl-6,7,8,9-tetrahydro-5H-imidazo[1,5-a][1,4]diazepine-1-carboxamide], the “+/− RCB2” value (rat CB2 receptor (rCB2)) is reported as “−” and the EC50 [1] is reported as greater than 10 µM.
In the case of CNC(=O)[C@@H](NC(=O)c1nc(-c2ccc(F)cc2F)n2c1CN(C)CCC2)C(C)(C)C [Compound 355, (S)-3-(2,4-difluorophenyl)-N-(3,3-dimethyl-1-(methylamino)-1-oxobutan-2-yl)-8-methyl-6,7,8,9-tetrahydro-5H-imidazo[1,5-a][1,4]diazepine-1-carboxamide], the “+/− RCB2” value (rat CB2 receptor (rCB2)) is reported as “+” and the “+/− HCB1” value [1] is reported as “+”.
CNC(=O)[C@@H](NC(=O)c1nc(-c2cccc(Cl)c2F)n2c1CN(C)CCC2)C(C)(C)C [Compound 356, (S)-3-(3-chloro-2-fluorophenyl)-N-(3,3-dimethyl-1-(methylamino)-1-oxobutan-2-yl)-8-methyl-6,7,8,9-tetrahydro-5H-imidazo[1,5-a][1,4]diazepine-1-carboxamide] showed an EC50 (rat CB2 receptor (rCB2)) greater than 10 µM and an EC50 [1] greater than 10 µM.
Compound CNC(=O)[C@@H](NC(=O)c1nc(-c2cc(Cl)c(C)cc2F)n2c1CN(C)CCC2)C(C)(C)C [Compound 357, (S)-3-(5-chloro-2-fluoro-4-methylphenyl)-N-(3,3-dimethyl-1-(methylamino)-1-oxobutan-2-yl)-8-methyl-6,7,8,9-tetrahydro-5H-imidazo[1,5-a][1,4]diazepine-1-carboxamide] has an EC50 (rat CB2 receptor (rCB2)) greater than 10 µM and an EC50 [1] greater than 10 µM.
CNC(=O)[C@@H](NC(=O)c1nc(-c2ccc(OC)cc2F)n2c1CN(C)CCC2)C(C)(C)C [Compound 358] was tested, and the “+/− RCB2” value (rat CB2 receptor (rCB2)) was “−” and the EC50 [1] was greater than 10 µM.
In the case of CNC(=O)[C@@H](NC(=O)c1nc(-c2cc(F)ccc2F)n2c1CN(C)CCC2)C(C)(C)C [Compound 359, (S)-3-(2,5-difluorophenyl)-N-(3,3-dimethyl-1-(methylamino)-1-oxobutan-2-yl)-8-methyl-6,7,8,9-tetrahydro-5H-imidazo[1,5-a][1,4]diazepine-1-carboxamide], the “+/− RCB2” value (rat CB2 receptor (rCB2)) is reported as “+” and the EC50 [1] is reported as greater than 10 µM.
CNC(=O)[C@@H](NC(=O)c1nc(-c2ccc(C)c(F)c2)n2c1CN(C)CCC2)C(C)(C)C [Compound 360, (S)-N-(3,3-dimethyl-1-(methylamino)-1-oxobutan-2-yl)-3-(3-fluoro-4-methylphenyl)-8-methyl-6,7,8,9-tetrahydro-5H-imidazo[1,5-a][1,4]diazepine-1-carboxamide] was tested, and the EC50 (rat CB2 receptor (rCB2)) was greater than 10 µM and the EC50 [1] was greater than 10 µM.
CNC(=O)[C@@H](NC(=O)c1nc(-c2cc(Cl)ccc2F)n2c1CN(C)CCC2)C(C)(C)C [Compound 361, (S)-3-(5-chloro-2-fluorophenyl)-N-(3,3-dimethyl-1-(methylamino)-1-oxobutan-2-yl)-8-methyl-6,7,8,9-tetrahydro-5H-imidazo[1,5-a][1,4]diazepine-1-carboxamide] was tested, and the “+/− RCB2” value (rat CB2 receptor (rCB2)) was “+” and the “+/− HCB1” value [1] was “+”.
CNC(=O)[C@@H](NC(=O)c1nc(-c2cc(C)ccc2F)n2c1CN(C)CCC2)C(C)(C)C [Compound 362, (S)-N-(3,3-dimethyl-1-(methylamino)-1-oxobutan-2-yl)-3-(2-fluoro-5-methylphenyl)-8-methyl-6,7,8,9-tetrahydro-5H-imidazo[1,5-a][1,4]diazepine-1-carboxamide] was tested, and the “+/− RCB2” value (rat CB2 receptor (rCB2)) was “+” and the EC50 [1] was greater than 10 µM.
For CNC(=O)[C@@H](NC(=O)c1nc(-c2cc(C(F)(F)F)ccc2F)n2c1CN(C)CCC2)C(C)(C)C [Compound 363, (S)-N-(3,3-dimethyl-1-(methylamino)-1-oxobutan-2-yl)-3-(2-fluoro-5-(trifluoromethyl)phenyl)-8-methyl-6,7,8,9-tetrahydro-5H-imidazo[1,5-a][1,4]diazepine-1-carboxamide], the “+/− RCB2” value (rat CB2 receptor (rCB2)) was “−” and the EC50 [1] was greater than 10 µM.
CNC(=O)[C@@H](NC(=O)c1nc(-c2cccc(C(F)(F)F)c2F)n2c1CN(C)CCC2)C(C)(C)C [Compound 364, (S)-N-(3,3-dimethyl-1-(methylamino)-1-oxobutan-2-yl)-3-(2-fluoro-3-(trifluoromethyl)phenyl)-8-methyl-6,7,8,9-tetrahydro-5H-imidazo[1,5-a][1,4]diazepine-1-carboxamide] was tested, and the “+/− RCB2” value (rat CB2 receptor (rCB2)) was “−” and the EC50 [1] was greater than 10 µM.
In the case of CNC(=O)[C@@H](NC(=O)c1nc(-c2c(F)cccc2OC)n2c1CN(C)CCC2)C(C)(C)C [Compound 365, N-((S)-3,3-dimethyl-1-(methylamino)-1-oxobutan-2-yl)-3-(2-fluoro-6-methoxyphenyl)-8-methyl-6,7,8,9-tetrahydro-5H-imidazo[1,5-a][1,4]diazepine-1-carboxamide], the “+/− RCB2” value (rat CB2 receptor (rCB2)) is reported as “+” and the EC50 [1] is reported as greater than 10 µM.
For CNC(=O)[C@@H](NC(=O)c1nc(-c2ccc(C)cc2Cl)n2c1CN(C)CCC2)C(C)(C)C [Compound 367, (S)-3-(2-chloro-4-methylphenyl)-N-(3,3-dimethyl-1-(methylamino)-1-oxobutan-2-yl)-8-methyl-6,7,8,9-tetrahydro-5H-imidazo[1,5-a][1,4]diazepine-1-carboxamide], the EC50 (rat CB2 receptor (rCB2)) was greater than 10 µM and the EC50 [1] was greater than 10 µM.
In the case of CNC(=O)[C@@H](NC(=O)c1nc(-c2ccc(C(F)(F)F)cc2F)n2c1CN(C)CCC2)C(C)(C)C [Compound 368, (S)-N-(3,3-dimethyl-1-(methylamino)-1-oxobutan-2-yl)-3-(2-fluoro-4-(trifluoromethyl)phenyl)-8-methyl-6,7,8,9-tetrahydro-5H-imidazo[1,5-a][1,4]diazepine-1-carboxamide], the “+/− RCB2” value (rat CB2 receptor (rCB2)) is reported as “+” and the “+/− HCB1” value [1] is reported as “+”.
In the case of CNC(=O)[C@@H](NC(=O)c1nc(-c2cccc(F)c2F)n2c1CN(C)CCC2)C(C)(C)C [Compound 369, (S)-3-(2,3-difluorophenyl)-N-(3,3-dimethyl-1-(methylamino)-1-oxobutan-2-yl)-8-methyl-6,7,8,9-tetrahydro-5H-imidazo[1,5-a][1,4]diazepine-1-carboxamide], the “+/− RCB2” value (rat CB2 receptor (rCB2)) is reported as “+” and the EC50 [1] is reported as greater than 10 µM.
In the case of CNC(=O)[C@@H](NC(=O)c1nc(-c2cc(Cl)c(F)cc2F)n2c1CN(C)CCC2)C(C)(C)C [Compound 370, (S)-3-(5-chloro-2,4-difluorophenyl)-N-(3,3-dimethyl-1-(methylamino)-1-oxobutan-2-yl)-8-methyl-6,7,8,9-tetrahydro-5H-imidazo[1,5-a][1,4]diazepine-1-carboxamide], the “+/− RCB2” value (rat CB2 receptor (rCB2)) is reported as “+” and the EC50 [1] is reported as greater than 10 µM.
For CNC(=O)[C@@H](NC(=O)c1nc(-c2cc(F)c(F)cc2F)n2c1CN(C)CCC2)C(C)(C)C [Compound 371, (S)-N-(3,3-dimethyl-1-(methylamino)-1-oxobutan-2-yl)-8-methyl-3-(2,4,5-trifluorophenyl)-6,7,8,9-tetrahydro-5H-imidazo[1,5-a][1,4]diazepine-1-carboxamide], the “+/− RCB2” value (rat CB2 receptor (rCB2)) was “+” and the “+/− HCB1” value [1] was “+”.
With CNC(=O)[C@@H](NC(=O)c1nc(-c2ccc(F)c(Cl)c2)n2c1CN(C)CCC2)C(C)(C)C [Compound 372, (S)-3-(3-chloro-4-fluorophenyl)-N-(3,3-dimethyl-1-(methylamino)-1-oxobutan-2-yl)-8-methyl-6,7,8,9-tetrahydro-5H-imidazo[1,5-a][1,4]diazepine-1-carboxamide] the “+/− RCB2” value (rat CB2 receptor (rCB2)) was “+” and the EC50 [1] was greater than 10 µM.
CNC(=O)[C@@H](NC(=O)c1nc(-c2ccc(Cl)c(F)c2)n2c1CN(C)CCC2)C(C)(C)C [Compound 373] was tested, and the “+/− RCB2” value (rat CB2 receptor (rCB2)) was “+” and the EC50 [1] was greater than 10 µM.
In the case of CNC(=O)[C@@H](NC(=O)c1nc(-c2cc(F)c(F)c(F)c2)n2c1CN(C)CCC2)C(C)(C)C [Compound 375, (S)-N-(3,3-dimethyl-1-(methylamino)-1-oxobutan-2-yl)-8-methyl-3-(3,4,5-trifluorophenyl)-6,7,8,9-tetrahydro-5H-imidazo[1,5-a][1,4]diazepine-1-carboxamide], the “+/− RCB2” value (rat CB2 receptor (rCB2)) is reported as “+” and the EC50 [1] is reported as greater than 10 µM.
For C/C=C/c1nc(C(=O)N[C@H](C(=O)NC)C(C)(C)C)c2n1CCCN(C)C2 [Compound 376, (S,E)-N-(3,3-dimethyl-1-(methylamino)-1-oxobutan-2-yl)-8-methyl-3-(prop-1-enyl)-6,7,8,9-tetrahydro-5H-imidazo[1,5-a][1,4]diazepine-1-carboxamide], the “+/− RCB2” value (rat CB2 receptor (rCB2)) was “+” and the EC50 [1] was greater than 10 µM.
For CNC(=O)[C@@H](NC(=O)c1nc(C=C(C)C)n2c1CN(C)CCC2)C(C)(C)C [Compound 377, (S)-N-(3,3-dimethyl-1-(methylamino)-1-oxobutan-2-yl)-8-methyl-3-(2-methylprop-1-enyl)-6,7,8,9-tetrahydro-5H-imidazo[1,5-a][1,4]diazepine-1-carboxamide], the “+/− RCB2” value (rat CB2 receptor (rCB2)) was “+” and the EC50 [1] was greater than 10 µM.
In the case of CNC(=O)[C@@H](NC(=O)c1nc(-c2ccc(N3CCOCC3)cc2)n2c1CN(C)CCC2)C(C)(C)C [Compound 378, (S)-N-(3,3-dimethyl-1-(methylamino)-1-oxobutan-2-yl)-8-methyl-3-(4-morpholinophenyl)-6,7,8,9-tetrahydro-5H-imidazo[1,5-a][1,4]diazepine-1-carboxamide], the “+/− RCB2” value (rat CB2 receptor (rCB2)) is reported as “−” and the EC50 [1] is reported as greater than 10 µM.
